Experimental data from patent US20260182575A1, “MOLECULES HAVING PESTICIDAL UTILITY AND INTERMEDIATES AND PROCESSES RELATED THERETO” (CORTEVA AGRISCIENCE LLC, priority 2022, published 2026).
Several values for one entry are separate records, joined by “and”; a condition that tells them apart may be missing. Equal values may be shown once.

What was measured:
Assay type in all cases: in vivo
[1] = test system: Green Peach Aphid (Myzus persicae, MYZUPE, GPA); experiment: Bioassay 1: green peach aphid, cabbage seedling foliar spray; conditions: for Average % Control AI: 3 days
Protocol: Bioassay 1: Green Peach Aphid (Myzus persicae, MYZUPE, “GPA”).
Stock solutions of F1 and various active ingredients were prepared initially at a concentration of 4 milligrams per milliliter (mg/mL) for F1 and 0.1 mg/mL for the active ingredients, respectively, using a 1:1 mixture of acetone:methanol as a diluent. Stock solutions were prepared with F1 as well as for each of the active ingredients individually. Test solutions were prepared from the stock solutions. Test solutions were prepared containing F1, the individual active ingredients, and mixtures of F1 with each of the active ingredients. The test solutions for F1 and the individual active ingredients were prepared by adding 750 microliters (μL) of stock solution to a 25 mL glass vial, then adding 750 μL of 1:1 acetone:methanol solvent, followed by the addition of 13.5 mL water with 0.025% Tween® 20 to create a 0.0005% (weight/volume (w/v)) solution. The test solutions containing mixtures of F1, and the individual active ingredients were prepared by adding 750 μL of the active ingredient stock solution to a 25 mL glass vial, followed by 750 μL of the F1 stock solution, then by the addition of 13.5 mL water with 0.025% Tween® 20 to create a test solution containing 0.0005% (w/v) F1 and 0.0005% (w/v) of the active ingredient. Each test solution was serially diluted to create desired doses of test solutions (0.0005% (w/v), 0.000125% (w/v), 0.00003125% (w/v), 0.0000078% (w/v), 0.00000195% (w/v), and 0.0000005% (w/v)). In test solutions containing mixtures of F1 and the active ingredients, the active ingredients were diluted as described above, but the concentration of F1 was held constant (0.04% (w/v)).
The test solutions were tested against GPA using the following procedure: cabbage seedlings, grown in 3-inch pots with 2-3 small (3-5 centimeter (cm)) true leaves, were used as test substrate. The seedlings were infested with 20-50 GPA (wingless adult and nymph stages) one day prior to chemical application. Four pots with individual seedlings were used for each treatment. A hand-held aspirator-type sprayer was used for spraying a solution to both sides of […] leaves until runoff. Reference plants (solvent check) were sprayed with the diluent only (0.025% Tween® 20 and 10% acetone:methanol (1:1) in water). Treated plants were held in a holding room for three days at approximately 25° C. and ambient relative humidity (RH about 20% to about 45%) prior to grading. Evaluation was conducted by counting the number of live aphids per plant under a microscope three days after treatment. Percent control was measured using Abbott's correction formula (W. S. Abbott, J. Econ. Entomol. 18 (1925), pp. 265-267) as follows:
where X=No. of live aphids on solvent check plants and Y=No. of live aphids on treated plants. In Table B1 the “Expected % Control” was calculated using the method described in Colby S. R., Weeds, 1967, 15, 20-22. Bioassay 2: Sweet Potato Whitefly (Bemisia tabaci, BEMITA, “SPW”).

[2] = test system: Corn Earworm (Helicoverpa zea, HELIZE, CEW); experiment: Bioassay 4: corn earworm, artificial diet, 128-cell tray; conditions: for Average % Control AI: AI alone; for Average % Control F1: F1 alone
Outline: (§1)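 Test solutions (0.0000004–0.04% w/v, i.e. 0.00005–5 μg/cm² on diet) were pipetted onto artificial lepidopteran diet and one 2nd-instar larva was placed per cell, 8 replicates per species, held at ~26° C. Live larvae were counted after 5 days; percent control used Abbott's correction against a solvent check.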

[3] = test system: Soybean Looper (Chrysodeixis includens, PSEPIN, SBL); experiment: Bioassay 4: soybean looper, artificial diet, 128-cell tray; conditions: AI alone
Outline: as §1

[4] = test system: Fall Armyworm (Spodoptera frugiperda, LAPHFR, FAW); experiment: Bioassay 4: fall armyworm, artificial diet, 128-cell tray; conditions: AI alone
Outline: as §1

[5] = AI alone at the rate of Wt Ratio F1:AI 1:2564 (F1 0.04)
[6] = AI alone at the rate of Wt Ratio F1:AI 1:40000 (F1 0.04)
[7] = AI alone at the rate of Wt Ratio F1:AI 1:640 (F1 0.04)

Compound	Average % Control AI [1, 5] [%]	Average % Control AI ([2]; 0.000004 wt %) [%]	Average % Control AI ([2]; 0.00004 wt %) [%]	Average % Control AI ([3]; 0.000004 wt %) [%]	Average % Control AI ([4]; 0.000004 wt %) [%]	Average % Control AI ([3]; 0.00004 wt %) [%]	Average % Control AI ([4]; 0.00004 wt %) [%]	Average % Control AI [1, 6] [%]	Average % Control AI [1, 7] [%]	Average % Control AI ([2]; 0.0004 wt %) [%]	Average % Control F1 ([1]; F1 alone, Wt % 0.04 (10^-6), cabbage spray, 3 days after treatment)	Average % Control F1 ([2]; 0.0000004 wt %) [%]	Average % Control F1 ([2]; 0.00004 wt %) [%]	Average % Control AI ([1]; AI alone at the rate of Wt Ratio F1:AI 1:10256 (F1 0.04)) [%]
CON=CNC(=O)c1ccc(C2=NOC(c3cc(Cl)cc(Cl)c3)(C(F)(F)F)C2)cc1C (stereo not shown) [Fluxametamide]	23.1	0.0	0.0	12.5	12.5	–	–	–	–	–	–	–	–	–
Chlorfenapyr	10.1	0.0	12.5	25.0	0.0	37.5	37.5	–	–	–	–	–	–	–
C[C@]1(COC(=O)C2CC2)[C@@H]2C[C@H](O)[C@@]3(C)Oc4cc(-c5cccnc5)oc(=O)c4[C@H](O)[C@@H]3[C@@]2(C)CC[C@@H]1OC(=O)C1CC1 [Afidopyropen]	–	0.0	0.0	0.0	0.0	0.0	0.0	–	–	–	–	–	–	–
Cc1c(COC(=O)[C@@H]2[C@H](/C=C(\Cl)C(F)(F)F)C2(C)C)cccc1-c1ccccc1 (racemic) [Bifenthrin]	–	0.0	0.0	0.0	12.5	0.0	12.5	16.3	–	–	–	–	–	–
COC(=O)N(C(=O)N1CO[C@@]2(C(=O)OC)Cc3cc(Cl)ccc3C2=N1)c1ccc(OC(F)(F)F)cc1 [Indoxacarb]	–	0.0	0.0	0.0	0.0	–	0.0	0.0	10.1	0.0	–	–	–	–
CC1=NNC(=O)N(/N=C/c2cccnc2)C1 [Pymetrozine]	–	0.0	0.0	12.5	0.0	–	0.0	15.4	47.6	–	–	–	–	–
Cc1ccc(COCC(F)(F)F)c(N2C(=O)CS/C2=N\C(=O)Nc2ccc(-c3ncn(-c4ccc(OC(F)(F)F)cc4)n3)cc2F)c1 [F1]	–	–	–	–	–	–	–	–	–	–	8.8% and 7.1% and 15.8%	0.0	75.0	–
CN1COCN(Cc2cnc(Cl)s2)/C1=N\[N+](=O)[O-] [Thiamethoxam]	–	0.0	0.0	0.0	0.0	–	–	0.0	–	–	–	–	–	8.5
